According to PMC5569483, “Screening and evolution of a novel protist xylose isomerase from the termite Reticulitermes speratus for efficient xylose fermentation in Saccharomyces cerevisiae” (Biotechnology for Biofuels, 2017):

Test system: T1, RsXI-C1
T1 construct: full-length ORF, codon-optimized gene, expressed in S. cerevisiae W600W (strain WR311), crude cell extract
Experiment: coupled sorbitol dehydrogenase assay, NADH oxidation at […] nm, Lineweaver-Burk
Format: biochemical, uncultured symbiotic protist of Reticulitermes speratus
Conditions: crude cell extract; 100 mM Tris-HCl pH 7.5, 10 mM MgSO4, 0.15 mM NADH, 30 °C, 5–250 mM D-xylose

Km: 10.5 ± 1.1 mM
SMILES: OC1OC[C@@H](O)[C@H](O)[C@H]1O (stereo partly shown) [xylose]
